Values quoted from earlier work, collected in the CATMoS acute toxicity set (Mansouri et al. 2021).
Where “and” joins values, the source holds several entries; their conditions need not be identical. Equal entries are not always repeated.

Assay: rat acute oral toxicity
Conditions: in vivo

Q: With COP(=O)(OC)OC(Br)C(Br)(Br)Br (configuration not stated) as the compound, how does the LD50 read?
A: 184 mg/kg

Q: For CCCCCC(C)O (configuration not stated), which LD50 is on record?
A: 2580 mg/kg

Q: With C=CCNC(N)=S as the compound, how does the LD50 read?
A: 200 mg/kg

Q: For O=C1NCc2ccccc2O1, which LD50 is on record?
A: 1050 mg/kg

Q: For Cc1cn([C@H]2C[C@H](N=[N+]=[N-])[C@@H](CO)O2)c(=O)[nH]c1=O, which LD50 is on record?
A: 3080 mg/kg

Q: For COc1cc([C@@H]2c3cc4c(cc3C(O[C@@H]3O[C@@H]5CO[C@@H](C)O[C@H]5[C@H](O)[C@H]3O)C3COC(=O)[C@@H]32)OCO4)cc(OC)c1O (some centres not stated), which LD50 is on record?
A: 1780 mg/kg

Q: Which LD50 does the source give for CCOP(=S)(OCC)SCn1nc(C)ccc1=O here?
A: 45 mg/kg

Q: For CN(C)CCC=C1c2ccccc2CS(=O)c2sccc21 (configuration not stated), which LD50 is on record?
A: 319 mg/kg

Q: For CCCCSc1ccc(C(SCCN(C)C)c2ccccc2)cc1 (configuration not stated), which LD50 is on record?
A: 3800 mg/kg

Q: Which LD50 does the source give for C[C@H](Oc1ccc(Oc2nc3ccc(Cl)cc3o2)cc1)C(=O)O here?
A: 2090 mg/kg

Q: For CC(C)(C)[C@@H](O)[C@@H](Cc1ccc(Cl)cc1)n1cncn1 (single isomer, unassigned), which LD50 is on record?
A: 1300 mg/kg

Q: Which LD50 does the source give for COc1ccccc1 here?
A: 3700 mg/kg

Q: For Nc1nc(N)c2nc(-c3ccccc3)c(N)nc2n1, which LD50 is on record?
A: 400 mg/kg

Q: Which LD50 does the source give for CCCC(=NOCC)C1=C(O)CC(C2CCCSC2)CC1=O (configuration not stated) here?
A: 3940 mg/kg

Q: With Nc1ccc2c(c1)C(=O)NC(CCCl)O2 (configuration not stated) as the compound, how does the LD50 read?
A: 1960 mg/kg

Q: Which LD50 does the source give for O=NN1CCOCC1 here?
A: 282 mg/kg

Q: For CCOC(=O)CS, which LD50 is on record?
A: 178 mg/kg

Q: Which LD50 does the source give for CC(C)Cc1ccc2ccccc2n1 here?
A: 1020 mg/kg

Q: Which LD50 does the source give for O=C(OCC1(COC(=O)c2cccnc2)CCCC(COC(=O)c2cccnc2)(COC(=O)c2cccnc2)C1O)c1cccnc1 here?
A: 10000 mg/kg

Q: With O=[N+]([O-])C1(Br)COCOC1 as the compound, how does the LD50 read?
A: 455 mg/kg

Q: For Cc1ccc(N)c(C)c1, which LD50 is on record?
A: 1260 mg/kg

Q: With COC(OC)c1ccccc1 as the compound, how does the LD50 read?
A: 1220 mg/kg

Q: With CCc1ccc(C)cc1 as the compound, how does the LD50 read?
A: 4850 mg/kg

Q: With Cc1cc(CC(C)CC(C)(C)C)oc(=O)c1 (configuration not stated) as the compound, how does the LD50 read?
A: 1480 mg/kg

Q: With C#CCOC(=O)CCCCC(=O)OCC#C as the compound, how does the LD50 read?
A: 200 mg/kg

Q: For CC(=O)Nc1ccc(OC(=O)c2ccccc2OC(C)=O)cc1, which LD50 is on record?
A: 3500 mg/kg

Q: With CCOC(=O)C(C#N)C(C)=O (configuration not stated) as the compound, how does the LD50 read?
A: 500 mg/kg

Q: Which LD50 does the source give for CC(Cc1ccccc1)NN (configuration not stated) here?
A: 34 mg/kg

Q: With CCCC(C(=O)c1ccc(C)cc1)N1CCCC1 (configuration not stated) as the compound, how does the LD50 read?
A: 620 mg/kg

Q: Which LD50 does the source give for CC(C(=O)O)c1cccc2c(-c3ccccc3)coc12 (configuration not stated) here?
A: 950 mg/kg

Q: For O=C(NN=C1C=CC(=NO)C=C1)c1ccccc1, which LD50 is on record?
A: 100 mg/kg

Q: Which LD50 does the source give for O=C1CCc2cc(C=CCCN3CCN(c4ccccc4)CC3)ccc2N1 here?
A: 500 mg/kg

Q: Which LD50 does the source give for CCSC(=O)NCCCN(C)C here?
A: 1300 mg/kg

Q: Which LD50 does the source give for CNc1ccc(NCCO)c2c1C(=O)c1ccccc1C2=O here?
A: 1340 mg/kg

Q: Which LD50 does the source give for Cc1cc(C)n(SC(Cl)(Cl)Cl)n1 here?
A: 570 mg/kg

Q: Which LD50 does the source give for O=C(OC1CCC(N2CCCCC2)CC1)c1ccccc1 (configuration not stated) here?
A: 780 mg/kg

Q: With CCCn1c2ccccc2c2cc(N)ccc21 as the compound, how does the LD50 read?
A: 423 mg/kg

Q: For C=C(C)C(=O)OCCN(CCOC(=O)C(=C)C)CCOC(=O)C(=C)C, which LD50 is on record?
A: 11200 mg/kg

Q: Which LD50 does the source give for O=P(O)(O)Oc1c(Br)cc(Br)cc1-c1cc(Br)cc(Br)c1O here?
A: 142 mg/kg

Q: Which LD50 does the source give for CC(C)=CCC(CCN1CCOCC1)(C(N)=O)c1cccc2ccccc12 (configuration not stated) here?
A: 177 mg/kg

Q: For CCCCNC, which LD50 is on record?
A: 420 mg/kg

Q: For Cc1n[nH]c(=O)c2noc(C)c12, which LD50 is on record?
A: 1000 mg/kg

Q: Which LD50 does the source give for CCCCc1c(C)nc(NCC)nc1OS(=O)(=O)N(C)C here?
A: 4000 mg/kg

Q: For C=CCOC(=O)Nc1ccc(NCc2ccc(F)cc2)nc1N, which LD50 is on record?
A: 1030 mg/kg

Q: With Cc1cccc(NC(N)=O)c1 as the compound, how does the LD50 read?
A: 1330 mg/kg

Q: For CCCCN(CCCC)CC(C)O (configuration not stated), which LD50 is on record?
A: 1990 mg/kg

Q: Which LD50 does the source give for C=CCC1=C(C)C(OC(=O)C2C(C)(C)C2(C)C)CC1=O (configuration not stated) here?
A: 174 mg/kg

Q: For CC(Oc1c(Cl)cccc1Cl)C1=NCCN1 (configuration not stated), which LD50 is on record?
A: 70 mg/kg

Q: For CC(C)OC(C)C, which LD50 is on record?
A: 8470 mg/kg

Q: Which LD50 does the source give for CCC/C=C/C(OCC)OCC here?
A: 860 mg/kg

Q: Which LD50 does the source give for CC(C)[C@]12CC(=O)[C@H](C)[C@H]1C2 here?
A: 500 mg/kg

Q: Which LD50 does the source give for CN(C)c1ccc(N=Nc2ccccc2)cc1 here?
A: 200 mg/kg

Q: With CCc1c2c(nc3ccc(OC(=O)N4CCC(N5CCCCC5)CC4)cc13)-c1cc3c(c(=O)n1C2)COC(=O)[C@]3(O)CC as the compound, how does the LD50 read?
A: 867 mg/kg

Q: Which LD50 does the source give for C[N+]1(CCF)[C@@H]2CC[C@H]1C[C@@H](OC(=O)C(O)(c1ccccc1)c1ccccc1)C2 (single isomer, unassigned) here?
A: 740 mg/kg

Q: With CN(C)C/C=C(/c1ccc(Br)cc1)c1cccnc1 as the compound, how does the LD50 read?
A: 900 mg/kg and 844 mg/kg

Q: With O=C1[C@H]2CCCC[C@H]2C(=O)N1CCCCN1CCN(c2nsc3ccccc23)CC1 as the compound, how does the LD50 read?
A: 870 mg/kg

Q: With CC1=C(C(=O)OCOC(=O)C(C)(C)C)N2C(=O)[C@@H](NC(=O)C(N)c3ccccc3)[C@H]2SC1 (some centres not stated) as the compound, how does the LD50 read?
A: 4000 mg/kg

Q: Which LD50 does the source give for NC(=O)OC(CCl)Cc1ccccc1 (configuration not stated) here?
A: 490 mg/kg

Q: With CCOc1ccc(/C=C2\NCCc3cc(OCC)c(OCC)cc32)cc1OCC as the compound, how does the LD50 read?
A: 540 mg/kg

Q: For CC(=O)Nc1c(I)c(C(=O)O)c(I)c(N(C)C(C)=O)c1I, which LD50 is on record?
A: 38100 mg/kg

Q: Which LD50 does the source give for CCCCCOc1ccc(Br)cc1COCCN(CC)CC here?
A: 320 mg/kg

Q: For CN1CC(CCN2CC=C(c3ccccc3)CC2)OC1=O (configuration not stated), which LD50 is on record?
A: 340 mg/kg

Q: With CCCCCCOCCOC(=O)CCC(=O)OCCOCCCCCC as the compound, how does the LD50 read?
A: 4280 mg/kg

Q: For CNC(=O)Oc1ccccc1C(C)C, which LD50 is on record?
A: 450 mg/kg

Q: For CCCC(=O)OC(=O)CCC, which LD50 is on record?
A: 8790 mg/kg

Q: Which LD50 does the source give for CC(C)(C)C(=O)C(Cl)Cl here?
A: 1300 mg/kg

Q: Which LD50 does the source give for CCCCCCC(C)I (configuration not stated) here?
A: 8200 mg/kg
